Laboratory results as given in patent publication US8828680B2, “Combined rapid susceptibility assay and microorganism identification system” (Siemens Healthcare Diagnostics Inc., priority 1999, dated 2014).
In brackets after ≈: the same amount, converted by molar mass.

Columns and labels:
Format in all cases: cell-based
C. freundii 87 [1] = assay: New AST method using bichromatic absorbance between 405 and 620 nm
Description: (§1) The goals of the new AST method are to achieve higher precision, greater accuracy and increased reliability by using (1) quantitative spectral information derived from bichromatic measurements, (2) a dynamic breakpoint for individual drug wells based on their initial condition, and (3) a susceptibility index for determining susceptibility. The new AST method includes the following processes.
(§2) Bichromatic absorbance is the difference between the primary wavelength with significant turbidity and the secondary wavelength with little turbidity. For Gram positive organisms, the wavelengths are 505 and 620 for all drugs.
(§3) For Gram negative organisms, the wavelengths are 405 and 620 nm for most drugs except Nitrofurantoin and tetracycline. The wavelengths for Nitrofurantoin and tetracycline are 505 and 620 nm.
(§4) The susceptibility index (SI) is the ratio of the initial and final absorbance after correction for system drift. The susceptibility indexes are calculated for each drug well and the growth well (positive control well). The following formula (equation 1) is used to calculate the susceptibility index:
(§5) where • Di=Initial bichromatic absorbance from drug well • Df=Final bichromatic absorbance from drug well • Ci=Initial bichromatic absorbance from control ([…]) well • Cf=Final bichromatic absorbance from control (negative control) well
(§6) Compare susceptibility indices from drug wells to determine growth/no growth. A value of 1.05 is presently preferred for use as a cutoff to determine growth. The value may be adjusted as assay procedures undergo further refinement but is nonetheless expected to retain a value approaching 1.
(§7) In the current conventional MIC methods used in many art-recognized systems, the MIC is the first no growth well after the last growth well in the dilution series. Difficulties in interpretation occur, however, when there are “no growth” wells interspersed amongst “growth” wells in the same series. Conventional methods treat these no growth wells as “skipped” wells and the MIC is adjusted according to the number of skipped wells. In the methods and systems of the invention, however, an algorithm is applied which more accurately identifies which wells are true skipped wells. In addition, the algorithm is applied to determine which wells are contaminated. Use of the new system increases the accuracy of the read substantially.

C. freundii 87 [2] = assay: Conventional AST method using absorbance at 620 nm; conditions: Citrobacter freundii, 3 hrs and 16 hrs, breakpoint 1800
Procedure: In the conventional method, the analyte is turbidity and its measurement at 620 nm wavelength is used to quantify growth. The current conventional AST method determines growth by comparing the calculated processed value, which is the 620 nm absorbance difference between two (2) hours and forty-five minutes and 16 or 18 hours against a breakpoint. This breakpoint was determined by testing 100-200 isolates and reading results manually or via instruments and correlating the reads of those isolates to their processed values. […] Subsequently, a standard, automated assay may thus be conducted essentially as follows.

C. freundii 87 [3] = assay: Manual read MIC; conditions: Citrobacter freundii; C. freundii 87, manual read
Description: (§8) (see, e.g., Dried Gram Negative Procedural Manual, supra, at page 1 (and references cited therein).) Appropriate specimens should be collected, transported, and placed on primary isolation media according to procedures recommended in the Manual of Clinical Microbiology (Murray, et al. (eds.), Manual of Clinical Microbiology, 6th ed., American Society for Microbiology, Washington, D.C. (1995)). Subsequently, a standard, automated assay may thus be conducted essentially as follows.
(§9) The panels may be read manually (e.g. using a MICROSCAN® Microdilution Viewer, Dade MicroScan Inc., West Sacramento, Calif.) and results recorded on an appropriate worksheet. The panels may also—or alternatively—be read instrumentally, e.g., using a TOUCHSCAN®-SR, AUTOSCAN®-4, or WALKAWAY® system (Dade MicroScan Inc., West Sacramento, Calif.). Refer to the appropriate operator's manual for reading panels using instrumentation.

C. freundii 104 [4] = assay: New AST method using bichromatic absorbance between 405 and 620 nm; conditions: for Susceptibility Index (D6 − C6)/(D3 − C3): 6 hrs vs 3 hrs
Description: as §1, §2, §3, §4, §5, §6, §7

C. freundii 104 [5] = assay: Manual read MIC; conditions: Citrobacter freundii; C. freundii 104, manual read
Description: as §8, §9

C. freundii 104 [6] = assay: Conventional AST method using absorbance at 620 nm; conditions: Citrobacter freundii, 4 hrs and 16 hrs, breakpoint 400
Procedure: The monochromatic method of spectral analysis involves selecting a single wavelength that contains a unique spectral feature for the analyte of interest. In the conventional method, the analyte is turbidity and its measurement at 620 nm wavelength is used to quantify growth. The current conventional AST method determines growth by comparing the calculated processed value, which is the 620 nm absorbance difference between two (2) hours and forty-five minutes and 16 or 18 hours against a breakpoint. This breakpoint was determined by testing 100-200 isolates and reading results manually or via instruments and correlating the reads of those isolates to their processed values. This approach has limited capability because the processed value is not corrected for system-dependent variations and the breakpoint is not adaptable to system change. […] (see, e.g., Dried Gram Negative Procedural Manual, supra, at page 1 (and references cited therein).) Appropriate specimens should be collected, transported, and placed on primary isolation media according to procedures recommended in the Manual of Clinical Microbiology (Murray, et al. (eds.), Manual of Clinical Microbiology, 6th ed., American Society for Microbiology, Washington, D.C. (1995)). Subsequently, a standard, automated assay may thus be conducted essentially as follows.

[7] = Citrobacter freundii, bichromatic 405-620 nm, 3 hrs and 6 hrs

MIC (C. freundii 87 [3]) [µg/mL] | MIC (C. freundii 104 [5]) [µg/mL] | Compound | MIC (C. freundii 87 [1]; [7]) [µg/mL] | Susceptibility Index (D6 − C6)/(D3 − C3) (C. freundii 87 [1]; drug level 256 μg/mL, 6 hrs vs 3 hrs) | MIC (C. freundii 87 [2]) [µg/mL] | MIC (C. freundii 104 [4]; [7]) [µg/mL] | Susceptibility Index (D6 − C6)/(D3 − C3) (C. freundii 104 [4]; drug level 0.5 μg/mL) | Susceptibility Index (D6 − C6)/(D3 − C3) (C. freundii 104 [4]; drug level 1 μg/mL) | Susceptibility Index (D6 − C6)/(D3 − C3) (C. freundii 104 [4]; drug level 2 μg/mL) | Susceptibility Index (D6 − C6)/(D3 − C3) (C. freundii 104 [4]; drug level 4 μg/mL) | Susceptibility Index (D6 − C6)/(D3 − C3) (C. freundii 104 [4]; drug level 8 μg/mL) | MIC (C. freundii 104 [6]) [µg/mL]
> 256 | – | Cc1cc(NS(=O)(=O)c2ccc(N)cc2)no1 [Sulfamethoxazole] | > 256 | 1639/1064 = 1.5 | < 256 | – | – | – | – | – | – | –
– | 2 (≈ 4.28 µM) | NC[C@H]1O[C@H](O[C@H]2[C@H](O)[C@@H](O[C@H]3O[C@H](CO)[C@@H](O)[C@H](N)[C@H]3O)[C@H](N)C[C@@H]2N)[C@H](N)C[C@@H]1O [Tobramycin] | – | – | – | 2 (≈ 4.28 µM) | 3696/1205 = 3.0 | 1898/1201 = 1.6 | 1145/1180 = 1.0 | 1096/1136 = 1.0 | 1196/1237 = 1.0 | 2 (≈ 4.28 µM)
